Experiments:
Assay in all cases: KINOMEscan competition binding
Conditions in all cases: compound 10.0 µM
[1] = molecular target: MAP3K15 (human) (UniProt Q6ZN16)
[2] = molecular target: IRAK1 (human) (UniProt P51617)
[3] = molecular target: GRK1 (human) (UniProt Q15835)
[4] = molecular target: RPS6KA4 KD2 (human) (UniProt O75676)
[5] = molecular target: PLK2 (human) (UniProt Q9NYY3)
[6] = system: ABL1 (human), P00519 [Y253F]
[7] = molecular target: PAK1 (human) (UniProt Q13153)
[8] = molecular target: CaMK1 (human) (UniProt Q14012)
[9] = molecular target: MERTK (human) (UniProt Q12866)
Chain of MERTK (human) (Q12866 whole entry, looked up): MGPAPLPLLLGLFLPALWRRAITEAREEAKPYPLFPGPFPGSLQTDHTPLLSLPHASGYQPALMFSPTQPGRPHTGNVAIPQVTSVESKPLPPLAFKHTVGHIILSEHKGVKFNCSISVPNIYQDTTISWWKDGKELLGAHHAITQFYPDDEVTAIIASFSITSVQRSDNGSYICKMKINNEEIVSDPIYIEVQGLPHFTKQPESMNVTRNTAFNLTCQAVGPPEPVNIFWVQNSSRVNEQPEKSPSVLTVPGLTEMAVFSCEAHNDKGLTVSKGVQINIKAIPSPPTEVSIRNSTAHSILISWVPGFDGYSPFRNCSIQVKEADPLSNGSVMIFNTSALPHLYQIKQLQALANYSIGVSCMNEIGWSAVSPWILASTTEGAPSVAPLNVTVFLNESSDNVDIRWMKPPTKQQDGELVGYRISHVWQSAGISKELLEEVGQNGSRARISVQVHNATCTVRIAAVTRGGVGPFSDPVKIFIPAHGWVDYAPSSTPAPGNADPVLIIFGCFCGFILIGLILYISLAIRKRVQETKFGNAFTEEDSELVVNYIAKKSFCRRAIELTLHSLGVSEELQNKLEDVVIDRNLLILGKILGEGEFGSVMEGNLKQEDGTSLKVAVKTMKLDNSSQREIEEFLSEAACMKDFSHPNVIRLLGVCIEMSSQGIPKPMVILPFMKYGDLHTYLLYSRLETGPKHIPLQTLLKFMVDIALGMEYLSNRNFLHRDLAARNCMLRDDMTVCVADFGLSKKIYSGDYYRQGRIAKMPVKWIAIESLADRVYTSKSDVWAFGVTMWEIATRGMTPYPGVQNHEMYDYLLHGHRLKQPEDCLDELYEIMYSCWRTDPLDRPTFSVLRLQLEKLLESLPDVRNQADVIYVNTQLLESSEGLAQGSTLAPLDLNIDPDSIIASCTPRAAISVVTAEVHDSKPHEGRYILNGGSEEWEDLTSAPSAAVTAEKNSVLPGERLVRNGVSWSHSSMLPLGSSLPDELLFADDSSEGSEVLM

[10] = molecular target: SYK (human) (UniProt P43405)
[11] = molecular target: EIF2AK2 (human) (UniProt P19525)
[12] = molecular target: CSNK2A2 (human) (UniProt P19784)
[13] = molecular target: MYLK2 (human) (UniProt Q9H1R3)
[14] = molecular target: GAK (human) (UniProt O14976)
Chain of GAK (human) (O14976 whole entry, looked up): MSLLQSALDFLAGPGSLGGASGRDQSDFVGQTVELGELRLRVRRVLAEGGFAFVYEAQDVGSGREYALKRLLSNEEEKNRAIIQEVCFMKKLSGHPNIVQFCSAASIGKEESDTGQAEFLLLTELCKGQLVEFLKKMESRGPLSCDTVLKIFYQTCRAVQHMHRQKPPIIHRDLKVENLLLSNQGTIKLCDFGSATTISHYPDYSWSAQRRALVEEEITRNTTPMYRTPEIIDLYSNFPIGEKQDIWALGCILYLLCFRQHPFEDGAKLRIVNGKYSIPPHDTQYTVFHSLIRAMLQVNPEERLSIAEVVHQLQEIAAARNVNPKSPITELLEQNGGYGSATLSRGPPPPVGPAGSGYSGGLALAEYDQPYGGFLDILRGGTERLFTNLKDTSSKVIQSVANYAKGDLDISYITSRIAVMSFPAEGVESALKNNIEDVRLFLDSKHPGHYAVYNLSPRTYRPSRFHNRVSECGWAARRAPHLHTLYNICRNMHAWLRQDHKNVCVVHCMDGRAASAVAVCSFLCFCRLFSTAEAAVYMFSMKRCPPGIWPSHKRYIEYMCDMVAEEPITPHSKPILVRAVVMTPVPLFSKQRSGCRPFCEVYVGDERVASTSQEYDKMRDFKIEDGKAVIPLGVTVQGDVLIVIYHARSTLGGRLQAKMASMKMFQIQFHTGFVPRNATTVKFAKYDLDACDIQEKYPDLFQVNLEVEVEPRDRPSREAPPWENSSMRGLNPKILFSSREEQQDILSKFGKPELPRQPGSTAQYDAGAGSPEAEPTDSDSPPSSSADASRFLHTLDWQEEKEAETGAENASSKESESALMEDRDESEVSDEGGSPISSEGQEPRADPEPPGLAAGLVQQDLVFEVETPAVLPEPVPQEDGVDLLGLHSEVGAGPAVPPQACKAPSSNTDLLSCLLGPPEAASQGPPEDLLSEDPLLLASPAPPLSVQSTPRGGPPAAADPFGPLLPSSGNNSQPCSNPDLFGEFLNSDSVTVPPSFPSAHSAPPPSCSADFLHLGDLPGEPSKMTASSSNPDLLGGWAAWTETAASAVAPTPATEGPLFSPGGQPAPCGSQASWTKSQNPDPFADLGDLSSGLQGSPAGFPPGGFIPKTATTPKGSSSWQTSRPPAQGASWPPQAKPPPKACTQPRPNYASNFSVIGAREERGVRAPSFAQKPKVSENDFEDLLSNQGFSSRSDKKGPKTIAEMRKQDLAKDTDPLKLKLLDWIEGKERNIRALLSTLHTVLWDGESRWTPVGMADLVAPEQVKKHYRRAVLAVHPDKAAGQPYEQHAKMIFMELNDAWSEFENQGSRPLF

[15] = molecular target: RPS6KA1 KD2 (human) (UniProt Q15418)
Chain of RPS6KA1 KD2 (human) (Q15418 whole entry, looked up): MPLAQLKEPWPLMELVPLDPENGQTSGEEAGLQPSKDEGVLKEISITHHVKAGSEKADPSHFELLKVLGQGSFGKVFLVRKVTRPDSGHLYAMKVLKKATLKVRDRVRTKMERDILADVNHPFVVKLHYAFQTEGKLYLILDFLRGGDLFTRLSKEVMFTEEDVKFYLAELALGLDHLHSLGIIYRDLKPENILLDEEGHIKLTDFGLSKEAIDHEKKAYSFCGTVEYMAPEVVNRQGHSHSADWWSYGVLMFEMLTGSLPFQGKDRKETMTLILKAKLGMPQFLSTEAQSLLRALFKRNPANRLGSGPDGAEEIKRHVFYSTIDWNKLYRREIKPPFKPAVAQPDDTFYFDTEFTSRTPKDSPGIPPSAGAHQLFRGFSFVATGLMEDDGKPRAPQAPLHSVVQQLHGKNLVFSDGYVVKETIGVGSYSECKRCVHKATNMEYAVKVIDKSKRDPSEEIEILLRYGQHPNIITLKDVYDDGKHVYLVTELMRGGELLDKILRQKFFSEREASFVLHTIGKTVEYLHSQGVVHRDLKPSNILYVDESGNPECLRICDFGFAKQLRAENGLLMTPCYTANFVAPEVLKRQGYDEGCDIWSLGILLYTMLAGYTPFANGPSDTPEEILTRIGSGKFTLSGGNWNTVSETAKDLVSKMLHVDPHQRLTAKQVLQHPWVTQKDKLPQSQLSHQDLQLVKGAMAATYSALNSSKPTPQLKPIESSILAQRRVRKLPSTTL

[16] = molecular target: PRKCI (human) (UniProt P41743)
Chain of PRKCI (human) (P41743 whole entry, looked up): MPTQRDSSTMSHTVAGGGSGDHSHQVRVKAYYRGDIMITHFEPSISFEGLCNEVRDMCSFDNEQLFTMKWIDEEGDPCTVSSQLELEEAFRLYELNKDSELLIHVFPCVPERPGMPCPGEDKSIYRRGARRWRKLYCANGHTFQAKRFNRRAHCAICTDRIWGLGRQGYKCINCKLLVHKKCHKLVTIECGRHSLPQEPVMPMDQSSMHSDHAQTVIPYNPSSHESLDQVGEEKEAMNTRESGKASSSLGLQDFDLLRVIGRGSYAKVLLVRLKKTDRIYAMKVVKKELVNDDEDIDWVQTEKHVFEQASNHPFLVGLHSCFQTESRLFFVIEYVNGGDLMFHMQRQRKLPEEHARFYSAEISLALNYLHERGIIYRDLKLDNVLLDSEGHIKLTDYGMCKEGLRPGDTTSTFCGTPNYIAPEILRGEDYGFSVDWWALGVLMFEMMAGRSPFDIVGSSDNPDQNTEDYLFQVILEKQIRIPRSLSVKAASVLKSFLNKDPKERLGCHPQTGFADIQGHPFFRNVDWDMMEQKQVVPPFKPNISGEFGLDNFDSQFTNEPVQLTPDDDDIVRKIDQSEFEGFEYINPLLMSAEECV

[17] = molecular target: MAPKAPK2 (human) (UniProt P49137)
Chain of MAPKAPK2 (human) (P49137 whole entry, looked up): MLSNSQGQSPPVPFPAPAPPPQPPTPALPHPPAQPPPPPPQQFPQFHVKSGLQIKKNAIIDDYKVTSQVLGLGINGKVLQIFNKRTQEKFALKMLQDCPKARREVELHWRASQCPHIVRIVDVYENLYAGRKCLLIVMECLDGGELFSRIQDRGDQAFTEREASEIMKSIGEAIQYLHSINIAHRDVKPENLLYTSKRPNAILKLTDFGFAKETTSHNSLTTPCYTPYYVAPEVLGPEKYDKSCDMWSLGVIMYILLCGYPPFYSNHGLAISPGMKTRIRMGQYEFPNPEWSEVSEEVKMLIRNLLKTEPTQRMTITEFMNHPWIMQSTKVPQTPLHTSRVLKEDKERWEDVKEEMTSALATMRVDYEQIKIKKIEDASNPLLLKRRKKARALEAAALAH

[18] = molecular target: ROCK1 (human) (UniProt Q13464)
[19] = molecular target: YES1 (human) (UniProt P07947)
Chain of YES1 (human) (P07947 whole entry, looked up): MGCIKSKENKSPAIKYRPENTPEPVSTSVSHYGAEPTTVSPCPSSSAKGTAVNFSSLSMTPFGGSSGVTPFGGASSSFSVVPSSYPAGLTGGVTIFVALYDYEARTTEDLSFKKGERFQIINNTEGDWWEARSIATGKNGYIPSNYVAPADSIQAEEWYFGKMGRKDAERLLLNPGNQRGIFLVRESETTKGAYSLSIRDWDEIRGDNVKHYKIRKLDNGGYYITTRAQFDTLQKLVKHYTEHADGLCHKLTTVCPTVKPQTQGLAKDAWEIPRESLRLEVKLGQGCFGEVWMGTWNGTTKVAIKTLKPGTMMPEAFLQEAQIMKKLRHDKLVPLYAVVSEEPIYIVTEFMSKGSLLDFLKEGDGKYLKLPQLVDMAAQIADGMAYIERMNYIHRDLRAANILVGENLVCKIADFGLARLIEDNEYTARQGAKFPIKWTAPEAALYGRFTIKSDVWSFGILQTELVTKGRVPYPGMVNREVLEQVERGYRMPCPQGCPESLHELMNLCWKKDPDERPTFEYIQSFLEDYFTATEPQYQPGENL

[20] = molecular target: ANKK1 (human) (UniProt Q8NFD2)
[21] = molecular target: CHEK2 (human) (UniProt O96017)
[22] = molecular target: MAP3K10 (human) (UniProt Q02779)
[23] = molecular target: MAP2K7 (human) (UniProt O14733)
Chain of MAP2K7 (human) (O14733 whole entry, looked up): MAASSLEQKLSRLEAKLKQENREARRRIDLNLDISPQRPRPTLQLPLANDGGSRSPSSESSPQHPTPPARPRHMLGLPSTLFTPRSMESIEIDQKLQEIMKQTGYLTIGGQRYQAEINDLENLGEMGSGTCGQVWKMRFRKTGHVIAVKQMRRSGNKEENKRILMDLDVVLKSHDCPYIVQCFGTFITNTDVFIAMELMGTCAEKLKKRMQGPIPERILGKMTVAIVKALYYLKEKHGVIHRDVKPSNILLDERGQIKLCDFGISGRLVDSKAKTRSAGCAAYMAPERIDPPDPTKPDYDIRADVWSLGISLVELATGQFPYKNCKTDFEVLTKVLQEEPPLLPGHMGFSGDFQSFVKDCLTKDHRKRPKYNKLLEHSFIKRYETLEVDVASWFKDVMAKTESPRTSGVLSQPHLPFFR

[24] = molecular target: ULK3 (human) (UniProt Q6PHR2)
[25] = molecular target: MAP2K1 (human) (UniProt Q02750)
[26] = molecular target: AURKA (human) (UniProt O14965)
[27] = molecular target: CSF1R (human) (UniProt P07333)
[28] = molecular target: FGFR4 (human) (UniProt P22455)
[29] = molecular target: STK24 (human) (UniProt Q9Y6E0)
[30] = molecular target: GSK3B (human) (UniProt P49841)
[31] = molecular target: KIT (human) (UniProt P10721)
[32] = molecular target: MATK (human) (UniProt P42679)
[33] = molecular target: MAP4K3 (human) (UniProt Q8IVH8)
[34] = molecular target: STK17A (human) (UniProt Q9UEE5)
[35] = molecular target: PIK3CG (human) (UniProt P48736)
[36] = molecular target: SRC (human) (UniProt P12931)
[37] = molecular target: PIP5K1C (human) (UniProt O60331)
[38] = molecular target: SIK1 (human) (UniProt P57059)
[39] = molecular target: CRK2 (P.falciparum) (UniProt P61075)
[40] = molecular target: STK17B (human) (UniProt O94768)

CCN1CCN(C(=O)Cc2ccc(Nc3ncc(F)c(Nc4ccc(C(=O)Nc5ccccc5Cl)cc4)n3)cc2)CC1
kinase still bound, per cent of control [1]: 100% | kinase still bound, per cent of control [2]: 22% | kinase still bound, per cent of control [3]: 100% | kinase still bound, per cent of control [4]: 100% | kinase still bound, per cent of control [5]: 88% | kinase still bound, per cent of control [6]: 16% | kinase still bound, per cent of control [7]: 53% | kinase still bound, per cent of control [8]: 14% | kinase still bound, per cent of control [9]: 2% | kinase still bound, per cent of control [10]: 33% | kinase still bound, per cent of control [11]: 15% | kinase still bound, per cent of control [12]: 7.8% | kinase still bound, per cent of control [13]: 66% | kinase still bound, per cent of control [14]: 5.7% | kinase still bound, per cent of control [15]: 45% | kinase still bound, per cent of control [16]: 77% | kinase still bound, per cent of control [17]: 100% | kinase still bound, per cent of control [18]: 81% | kinase still bound, per cent of control [19]: 60% | kinase still bound, per cent of control [20]: 36% | kinase still bound, per cent of control [21]: 70% | kinase still bound, per cent of control [22]: 7.2% | kinase still bound, per cent of control [23]: 100% | kinase still bound, per cent of control [24]: 1.5% | kinase still bound, per cent of control [25]: 76% | kinase still bound, per cent of control [26]: 0.5% | kinase still bound, per cent of control [27]: 6.5% | kinase still bound, per cent of control [28]: 71% | kinase still bound, per cent of control [29]: 32% | kinase still bound, per cent of control [30]: 61% | kinase still bound, per cent of control [31]: 1% | kinase still bound, per cent of control [32]: 100% | kinase still bound, per cent of control [33]: 42% | kinase still bound, per cent of control [34]: 2.6% | kinase still bound, per cent of control [35]: 65% | kinase still bound, per cent of control [36]: 18% | kinase still bound, per cent of control [37]: 77% | kinase still bound, per cent of control [38]: 28% | kinase still bound, per cent of control [39]: 100% | kinase still bound, per cent of control [40]: 13%

From the kinase profiling compilation of Christmann-Franck et al. (2016)
